Test results from article PMC11111691, “Cystine-knot peptide inhibitors of HTRA1 bind to a cryptic pocket within the active site region” (Nature Communications, 2024).

Tests used:
Type in all cases: biochemical
HTRA2^PD/PDZ = target: T1, HTRA2^PD/PDZ (Homo sapiens, UniProt O43464); experiment: Fluorescence-quenched casein-BODIPY assay, HTRA2; settings: 30 nM HTRA2^PD/PDZ, 2 µM CKP (0.5 mM 7mer-ABP)
T1 construct: Human HTRA2^PD/PDZ (A134-E458) was from R & D Systems; purchased R & D Systems 1458-HT-100
T1 sequence (O43464 134-458): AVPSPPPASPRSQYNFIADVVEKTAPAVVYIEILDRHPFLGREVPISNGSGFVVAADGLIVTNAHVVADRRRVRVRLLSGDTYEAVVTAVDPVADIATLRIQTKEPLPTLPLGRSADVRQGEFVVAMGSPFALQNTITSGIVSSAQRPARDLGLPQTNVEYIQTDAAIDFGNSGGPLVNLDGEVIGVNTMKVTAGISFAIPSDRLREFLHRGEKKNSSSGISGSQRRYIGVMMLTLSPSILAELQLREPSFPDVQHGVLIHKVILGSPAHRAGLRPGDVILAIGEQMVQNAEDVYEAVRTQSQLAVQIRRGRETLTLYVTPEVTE
Protocol: (§1) The fluorescence-quenched casein-BODIPY® assay (EnzCheck®, Thermo Fisher Scientific) was carried out in TNC buffer (50 mM Tris pH 8.0, 200 mM NaCl, 0.25% CHAPS) at 37 °C in 96-well black optical bottom plates (Nalge Nunc Int., Rochester, NY). Enzymes were incubated with CKPs or DMSO control for 15 min prior to addition of casein substrate. The reactant concentrations were: 30 nM HTRA1^FL, 30 nM HTRA1^PD/PDZ, 30 nM HTRA1^PD, 30 nM HTRA2^PD/PDZ, 30 nM HTRA3^FL, 100 nM HTRA3^PD/PDZ, 30 nM HTRA4^FL, 300 nM HTRA4^PD/PDZ, 2 µM CKP, 5 µg/ml casein substrate and 0.25% DMSO. For selectivity assays, 0.5 mM 7mer-ABP was used as positive control. The kinetics of substrate cleavage were measured at 37 °C on a SpectraMax M5 microplate reader (Molecular Devices) with excitation of 485 nm and emission of 530 nm for 30 min (HTRA1 and HTRA2) or 5 h (HTRA3 and HTRA4). The determined initial rates of cleavage were expressed as percent of control (DMSO control) after subtracting the baseline rates (without enzyme).

HTRA1^PD/PDZ = target: T2, HTRA1^PD/PDZ (Homo sapiens, UniProt Q92743); experiment: H2-OPT selectivity assay, HTRA1^PD/PDZ; settings: 3 nM HTRA1^PD/PDZ, 2 µM CKP (0.5 mM 7mer-ABP), 5 µM H2-OPT
T2 construct: made in house; host or cells: E. coli
Protocol: Assays with the fluorescence-quenched synthetic substrate Mca-IRRVSYSFK(Dnp)K (H2-OPT)[38],[60] were carried out essentially as described. CKP stock solutions in DMSO were diluted in TNC buffer (dilution series for IC50 determinations, or final concentration of 2 µM for selectivity assay or as indicated for HTRA1/4 mutants) and incubated with enzymes in 96-well black optical bottom plates for 60 min at 37 °C. For selectivity experiments we used the 7mer-ABP as inhibitor, which was incubated with the proteases for 15 min at 37 °C. A 10 mM stock solution of H2-OPT in DMSO was diluted with water, prewarmed at 37 °C and then added to the CKP-enzyme mixtures. The final concentrations in the reaction mixtures were: 1 nM HTRA1^FL, 3 nM HTRA1^PD/PDZ, 1 nM HTRA1^PD, 1 nM HTRA2^PD/PDZ, 3 nM HTRA3^FL, 60 nM HTRA3^PD/PDZ, 6 nM HTRA4^FL, 1 µM HTRA4^PD/PDZ, 1 nM mouse HTRA1^PD, 25 nM HTRA1^PD-A202Y, 1 µM HTRA4^PD/PDZ-Y200A, 0.5 mM 7mer-ABP, 5 µM H2-OPT, and 0.25% DMSO. The kinetics of substrate cleavage was measured at 37 °C on a SpectraMax M5 microplate reader with excitation of 328 nm and emission of 393 nm. The determined initial rates of cleavage were expressed as percent of control (DMSO control) after subtracting the baseline rates (without enzyme). IC50 values were determined by Sigmoidal 4PL modeling of multiple data points from serial dilutions of CKPs using Prism 9 software (GraphPad). […]

[1] = target: T3, HTRA1^FL, HTRA1^PD, HTRA1^PD/PDZ (Homo sapiens, UniProt Q92743); experiment: Fluorescence-quenched casein-BODIPY assay, HTRA1 constructs; settings: 2 µM CKP (0.5 mM 7mer-ABP)
T3 construct: made in house; host or cells: Trichoplusia ni cells (FL); E. coli (PD, PD/PDZ)
Protocol: as §1

T2 sequence (Q92743 161-480): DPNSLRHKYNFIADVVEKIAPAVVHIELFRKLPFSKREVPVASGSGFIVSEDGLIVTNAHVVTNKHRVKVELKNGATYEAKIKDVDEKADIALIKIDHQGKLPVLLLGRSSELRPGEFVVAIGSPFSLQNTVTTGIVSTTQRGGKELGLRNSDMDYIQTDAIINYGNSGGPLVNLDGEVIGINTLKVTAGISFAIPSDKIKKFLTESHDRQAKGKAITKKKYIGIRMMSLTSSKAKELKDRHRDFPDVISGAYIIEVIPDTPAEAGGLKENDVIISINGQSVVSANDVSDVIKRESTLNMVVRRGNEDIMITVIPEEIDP

Inhibition of HTRA2^PD/PDZ, casein-BODIPY cleavage (% of control) (HTRA2^PD/PDZ): significantly inhibited
Inhibition of HTRA1^PD/PDZ, H2-OPT (% of control) (HTRA1^PD/PDZ): significantly inhibited
Inhibition of HTRA1^FL, casein-BODIPY cleavage (% of control) ([1]; 30 nM HTRA1^FL, 5 µg/ml casein, 37 °C): significantly inhibited
Inhibition of HTRA1^PD/PDZ, casein-BODIPY cleavage (% of control) ([1]; 30 nM HTRA1^PD/PDZ): significantly inhibited
Substance: DPMFKLV-phosphonate [7mer-ABP]
